Test results: patent US11135320B2, “Radioligands for pretargeted pet imaging and methods of their therapeutic use” (priority 2015, dated 2021)

Experiments:
[1] = mouse, in vivo; cited from earlier work
[2] = pretargeting, 24 h interval; Zeglis 2013; cited from earlier work
[3] = Blood residence time of ^64Cu-Tz-SarAr in healthy mice; assay type: in vivo, athymic nude mice; settings: for Activity in Blood: healthy mice
Method: The radioligand was excreted rapidly via the bladder and kidneys, and the activity concentrations in the large intestine—a critical source of background noise in clinical colorectal cancer imaging—remained remarkably low (e.g., 0.07±0.01% ID/g at 1 h post-injection). Additional experiments were conducted to further interrogate the in vivo performance of ^64Cu-Tz-SarAr.

[4] = system: subcutaneous SW1222 xenografts; test: Pretargeted PET imaging, control experiments; assay type: in vivo, athymic nude mice
Method: Due to its pharmacokinetic profile, ^64Cu-Tz-SarAr was selected for in vivo pretargeting experiments. To this end, athymic nude mice bearing A33 antigen-expressing SW1222 human colorectal carcinoma tumors were first injected with huA33-TCO (100 μg). After a 24 h interval during which huA33-TCO accumulated at the tumor and cleared from the blood, the mice were injected with ^64Cu-Tz-SarAr (400-450 μCi). The specific activity of the radiotracer was adjusted using cold ^natCu-Tz-SarAr such that the molar ratio of Tz-SarAr:huA33-TCO≈1:1. […] At 1 h post-injection, the activity concentration in the tumor (5.63±0.67% ID/g) was the highest of all tissues surveyed, while the blood (4.2±0.8% ID/g) and kidneys (3.1±0.3% ID/g) were the healthy organs with the highest background activity concentrations. […]
All pretargeted PET imaging experiments were performed on an Inveon PET/CT scanner (Siemens Healthcare Global). […] Static scans were recorded at various time points after injection with a minimum of 30 million coincident events (10-30 min total scan time). […] Activity concentrations (percentage of dose per gram of tissue [% ID/g]) and maximum intensity projections were determined by conversion of the counting rates from the reconstructed images. All of the resulting PET images were analyzed using ASIPro VM™ software. […]

O=C([O-])CN1CCN(CC(=O)[O-])CC(Cc2ccc(NC(=O)CCCC(=O)NCc3ccc(-c4nncnn4)cc3)cc2)N(CC(=O)[O-])CC1.[64Cu+2] (stereo not shown) [^64Cu-Tz-NOTA]
t1/2 of clearance through the intestinal tract [1]: ~4 h | Adrenals absorbed dose [2]: 0.0251 rad/mCi | Bladder Wall absorbed dose [2]: 0.0262 rad/mCi | Brain absorbed dose [2]: 0.0236 rad/mCi | Breasts absorbed dose [2]: 0.0209 rad/mCi | Effective Dose [2]: 0.046 rem/mCi | Gallbladder Wall absorbed dose [2]: 0.0272 rad/mCi | Heart Wall absorbed dose [2]: 0.0294 rad/mCi | Kidneys absorbed dose [2]: 0.0315 rad/mCi | Liver absorbed dose [2]: 0.0311 rad/mCi | Lower Lg. Int. Wall absorbed dose [2]: 0.166 rad/mCi | Lungs absorbed dose [2]: 0.0289 rad/mCi | Muscle absorbed dose [2]: 0.0138 rad/mCi | Osteogenic Cells absorbed dose [2]: 0.0852 rad/mCi | Ovaries absorbed dose [2]: 0.0299 rad/mCi | Pancreas absorbed dose [2]: 0.0258 rad/mCi | Red Marrow absorbed dose [2]: 0.0530 rad/mCi | Skin absorbed dose [2]: 0.0194 rad/mCi | Small Intestine absorbed dose [2]: 0.033 rad/mCi | Spleen absorbed dose [2]: 0.0180 rad/mCi | Stomach Wall absorbed dose [2]: 0.0267 rad/mCi | Testes absorbed dose [2]: 0.0225 rad/mCi | Thymus absorbed dose [2]: 0.0227 rad/mCi | Thyroid absorbed dose [2]: 0.0228 rad/mCi | Total Body absorbed dose [2]: 0.0272 rad/mCi | Upper Lg. Int. Wall absorbed dose [2]: 0.114 rad/mCi | Uterus absorbed dose [2]: 0.0277 rad/mCi

NC12CNCCNCC(NCc3ccc(CNC(=O)CCCC(=O)NCc4ccc(-c5nncnn5)cc4)cc3)(CNCCNC1)CNCCNC2.[64Cu+2] [^64Cu-Tz-SarAr]
half-life of clearance from the blood ([3]; biexponential fit, greater than 99% of the radioligand): ~16 min | Activity in Blood ([3]; 15 min): 3.02 ± 1.10 % ID/g | Activity in Blood ([3]; 30 min): 1.55 ± 0.21 % ID/g | Activity in Blood ([3]; 1 h): 0.42 ± 0.11 % ID/g | Activity in Blood ([3]; 4 h): 0.15 ± 0.01 % ID/g | Activity in Blood ([3]; 12 h): 0.12 ± 0.03 % ID/g | Activity in Blood ([3]; 24 h): 0.06 ± 0.01 % ID/g | blood residence time ([3]; vast majority of the radioligand): ~16 min | uptake by the tumor (control PET imaging) ([4]; ^64Cu-Tz-SarAr alone, no antibody): less than 0.5 % ID/g | uptake by the tumor (control PET imaging) ([4]; ^64Cu-Tz-SarAr with unmodified huA33): less than 0.5 % ID/g
